Patent US20110251247A1, “SUBSTITUTED ISOXAZOLINE DERIVATIVES” (PFIZER INC., priority 2010, published 2011)

What was measured:
Assay type in all cases: in vivo
[1] = test system: Horn Fly (Haematobia irritans); assay: Horn Fly (Haematobia irritans) Feed Assay; conditions: horn flies fed on treated citrated bovine blood; knockdown and mortality at approximately 2 and 24 hours
Description: Horn Fly (Haematobia irritans) Feed Assay
Formula (1) compounds were dissolved in DMSO and aliquots were added to citrated bovine blood in a membrane covered Petri dish. Approximately ten horn flies were placed onto each Petri dish and covered. The flies were allowed to feed on the treated blood cell. Flies were held at approximately 80° F. with a minimum of approximately 50% relative humidity. Flies were examined for knockdown and mortality at approximately 2 and 24 hours. Endpoint data were recorded as a lethal dose 90% (LD^90) in μg/mL.

[2] = test system: Hard Tick Larvae (Rhipicephalus sanquineus); assay: Hard Tick Larvae (Rhipicephalus sanquineus) Whole Organism Contact Assay; conditions: tick larvae in coated vials; knockdown examined at approximately 24 and 48 hours
Description: Hard Tick Larvae (Rhipicephalus sanquineus) Whole Organism Contact Assay
Formula (1) compounds were dissolved in isopropyl alcohol (IPA) and aliquots were added to vials placed on a roller for at least 2 hours to allow the IPA to evaporate. IPA alone was used as a negative control and fipronil was used as a positive control. Approximately 50-200 tick larvae were added to the vials using a swab and the vials were closed. At approximately 24 and 48 hours, the vials were examined and knockdown was recorded as active. Vials showing knockdown were examined for tick paralysis and/or death at approximately 48 hrs. Endpoint data can be recorded as an effective dose 100% (ED^100) and/or a lethal dose 100% (LD^100) in μg/cm^2.

[3] = test system: Flea (Ctenocephalides felis); assay: Flea (Ctenocephalides felis) Membrane Feed Assay-Adult; conditions: adult fleas fed on treated citrated bovine blood for approximately 2 hours; knockdown and/or death at approximately 2 and 24 hours
Description: Flea (Ctenocephalides felis) Membrane Feed Assay-Adult
Formula (1) compounds were dissolved in DMSO and aliquots were added to citrated bovine blood in a membrane covered Petri dish pre-warmed to 37° C. Feeding tubes containing approximately 30-35 adult fleas were placed onto the Petri dishes. The fleas were allowed to feed for approximately 2 hours. […] Endpoint data were recorded as an efficacious dose 80% (ED^80) in μg/mL.

SMILES	LD^90 (lethal dose 90%) [1]	ED^100 (effective dose 100%) [2]	ED^80 (efficacious dose 80%) [3]
CC(=O)NCc1cc(C2=NOC(c3cc(Cl)c(F)c(Cl)c3)(C(F)(F)F)C2)ccc1Cl (stereo not shown) [Example 17, N-{2-chloro-5-[5-(3,5-dichloro-4-fluorophenyl)-5-(trifluoromethyl)-4,5-dihydroisoxazol-3-yl]benzyl}acetamide]	1 µg/mL		
CCNC(=O)CC(=O)NCc1cc(C2=NOC(c3cc(Cl)c(Cl)c(Cl)c3)(C(F)(F)F)C2)ccc1F (stereo not shown) [Example 1, N-ethyl-N′-{2-fluoro-5-[5-(3,4,5-trichloro-phenyl)-5-trifluoromethyl-4,5-dihydro-isoxazol-3-yl]-benzyl}-malonamide]		10.0 μg/cm^2	
O=C(NCc1cc(C2=NOC(c3cc(Cl)c(F)c(Cl)c3)(C(F)(F)F)C2)ccc1F)C1CC(F)(F)C1 (stereo not shown) [Example 13, N-{5-[5-(3,5-dichloro-4-fluorophenyl)-5-(trifluoromethyl)-4,5-dihydroisoxazol-3-yl]-2-fluorobenzyl}-3,3-difluorocyclobutanecarboxamide]			3 µg/mL
CCC(=O)NCc1cc(C2=NOC(c3cc(Cl)c(Cl)c(Cl)c3)(C(F)(F)F)C2)ccc1F (stereo not shown) [Example 7, N-{2-fluoro-5-[5-(3,4,5-trichlorophenyl)-5-(trifluoromethyl)-4,5-dihydroisoxazol-3-yl]benzyl}propanamide]	1 µg/mL		10 µg/mL
CC(=O)NCc1cc(C2=NOC(c3cc(Cl)c(Cl)c(Cl)c3)(C(F)(F)F)C2)ccc1Br (stereo not shown) [Example 18, N-(2-bromo-5-(5-(3,4,5-trichlorophenyl)-5-(trifluoromethyl)-4,5-dihydroisoxazol-3-yl)benzyl)acetamide]	1 µg/mL		10 µg/mL
CC(C)C(=O)NCc1cc(C2=NOC(c3cc(Cl)c(Cl)c(Cl)c3)(C(F)(F)F)C2)ccc1F (stereo not shown) [Example 4, N-{2-fluoro-5-[5-(3,4,5-trichlorophenyl)-5-(trifluoromethyl)-4,5-dihydroisoxazol-3-yl]benzyl}-2-methylpropanamide]	1 µg/mL		
O=C(CC(=O)NCC1CC1)NCc1cc(C2=NOC(c3cc(Cl)c(Cl)c(Cl)c3)(C(F)(F)F)C2)ccc1F (stereo not shown) [Example 2, N-Cyclopropylmethyl-N′-{2-fluoro-5-[5-(3,4,5-trichloro-phenyl)-5-trifluoromethyl-4,5-dihydro-isoxazol-3-yl]-benzyl}-malonamide]		10.0 μg/cm^2	
O=C(NCc1cc(C2=NOC(c3cc(Cl)c(F)c(Cl)c3)(C(F)(F)F)C2)ccc1F)C1CC1 (stereo not shown) [Example 12, N-{5-[5-(3,5-dichloro-4-fluorophenyl)-5-(trifluoromethyl)-4,5-dihydroisoxazol-3-yl]-2-fluorobenzyl}cyclopropanecarboxamide]			3 µg/mL
O=C(NCc1cc(C2=NOC(c3cc(Cl)c(Cl)c(Cl)c3)(C(F)(F)F)C2)ccc1F)C1CCC1 (stereo not shown) [Example 6, N-{2-fluoro-5-[5-(3,4,5-trichlorophenyl)-5-(trifluoromethyl)-4,5-dihydroisoxazol-3-yl]benzyl}cyclobutanecarboxamide]	3 µg/mL		10 µg/mL
O=C(CC1CC1)NCc1cc(C2=NOC(c3cc(Cl)c(Cl)c(Cl)c3)(C(F)(F)F)C2)ccc1F (stereo not shown) [Example 8, 2-cyclopropyl-N-{2-fluoro-5-[5-(3,4,5-trichlorophenyl)-5-(trifluoromethyl)-4,5-dihydroisoxazol-3-yl]benzyl}acetamide]	3 µg/mL		
CC(C)CC(=O)NCc1cc(C2=NOC(c3cc(Cl)c(Cl)c(Cl)c3)(C(F)(F)F)C2)ccc1F (stereo not shown) [Example 9, N-{2-fluoro-5-[5-(3,4,5-trichlorophenyl)-5-(trifluoromethyl)-4,5-dihydroisoxazol-3-yl]benzyl}-3-methylbutanamide]	3 µg/mL		
CC(=O)NCc1cc(C2=NOC(c3cc(Cl)c(F)c(Cl)c3)(C(F)(F)F)C2)ccc1F (stereo not shown) [Example 11, N-{5-[5-(3,5-dichloro-4-fluorophenyl)-5-(trifluoromethyl)-4,5-dihydroisoxazol-3-yl]-2-fluorobenzyl}acetamide]	3 µg/mL		
CC(=O)NCc1cc(C2=NOC(c3cc(Cl)c(Cl)c(Cl)c3)(C(F)(F)F)C2)ccc1F (stereo not shown) [Example 3, N-{5-[5-(3,4,5-trichlorophenyl)-5-(trifluoromethyl)-4,5-dihydroisoxazol-3-yl]-2-fluorobenzyl}acetamide]	10 µg/mL		3 µg/mL
O=C(NCc1cc(C2=NOC(c3cc(Cl)c(Cl)c(Cl)c3)(C(F)(F)F)C2)ccc1F)C1CC1 (stereo not shown) [Example 5, N-{2-fluoro-5-[5-(3,4,5-trichlorophenyl)-5-(trifluoromethyl)-4,5-dihydroisoxazol-3-yl]benzyl}cyclopropanecarboxamide]	1 µg/mL		3 µg/mL
